Assay results taken from patent US20230028441A1, “NOVEL HETEROARYL-TRIAZOLE COMPOUNDS AS PESTICIDES” (Bayer Aktiengesellschaft, priority 2019, published 2023).

How the values were obtained:
Type in all cases: in vivo
[1] = system: adult unfed cat fleas (Ctenocephalides felis); test: Ctenocephalides felis oral test; settings: 48 h, 100 ppm in cattle blood, after 2 days
Description: (§1) Solvent: dimethyl sulfoxide
To produce a suitable preparation of active compound, 10 mg of active compound are dissolved in 0.5 mL solvent, and the concentrate is diluted with cattle blood to the desired concentration.
Approximately 20 adult unfed cat fleas (Ctenocephalides felis) are placed in flea chambers. The blood chamber, sealed with parafilm on the bottom, are filled with cattle blood supplied with compound solution and placed on the gauze covered top of the flea chamber, so that the fleas are able to suck the blood. The blood chamber is heated to 37° C. whereas the flea chamber is kept at room temperature.
After 2 days mortality in % is determined. 100% means all the fleas have been killed; 0% means none of the fleas have been killed.

[2] = system: adult engorged female ticks (Rhipicephalus microplus); test: Rhipicephalus (Boophilus) microplus injection test; settings: 168 h, egg deposition after 7 days, read-out: efficacy (infertile eggs); for pest or weed control at 0.004 mg: 4 μg/animal; for pest or weed control at 0.02 mg: 20 μg/animal
Description: as §1
To produce a suitable preparation of active compound, 10 mg of active compound are dissolved in 0.5 mL solvent, and the concentrate is diluted with solvent to the desired concentration.
Five adult engorged female ticks (Rhipicephalus microplus) are injected with 1 μL compound solution into the abdomen. The ticks are transferred into replica plates and incubated in a climate chamber.
After 7 days egg deposition of fertile eggs is monitored. Eggs where fertility is not visible are stored in a climate chamber till hatching after about 42 days. An efficacy of 100% means all eggs are infertile; 0% means all eggs are fertile.

[3] = system: larvae of the banded cucumber beetle (Diabrotica balteata); test: Diabrotica balteata spray test; settings: 168 h, 100 g/ha (=32 μg/well), after 7 days, wheat seeds, read-out: efficacy (seedlings grown up)
Description: (§2) Solvent: 78.0 parts by weight of acetone • • 1.5 parts by weight of dimethylformamide
(§3) Emulsifier: alkylarylpolyglycol ether
(§4) To produce a suitable preparation of active compound, 1 part by weight of active compound is mixed with the stated amount of solvent, and the concentrate is diluted with water, containing an emulsifier concentration of 1000 ppm, to the desired concentration. Further test concentrations are prepared by dilution with emulsifier containing water.
Soaked wheat seeds (Triticum aestivum) are placed in a multiple well plate filled with agar and some water and are incubated for 1 day to germinate (5 seeds per well). The germinated wheat seeds are sprayed with a test solution containing the desired concentration of the active ingredient. Afterwards each unit is infected with 10-20 larvae of the banded cucumber beetle (Diabrotica balteata).
After 7 days efficacy in % is determined. 100% means all the seedlings have grown up like in the untreated, uninfected control; 0% means none of the seedlings have grown.

[4] = system: cattle tick larvae (Rhipicephalus microplus), strain Parkhurst, resistant against synthetic pyrethroids; test: Rhipicephalus (Boophilus) microplus in-vitro contact test, larval cattle tick; settings: 5 μg/cm^2 (=500 g/ha), after 48 hours, read-out: efficacy (larvae dead or moribund)
Description: (§5) 9 mg compound is solved in 1 mL acetone and diluted with acetone to the desired concentration. 250 μL of the test solution is filled in 25 mL glass test tubes and homogeneously distributed on the inner walls by rotation and tilting on a shaking device (2 h at 30 rpm). With a compound concentration of 900 ppm, an inner surface of 44.7 cm^2 and a homogeneous distribution, a dose of 5 μg/cm^2 is achieved.
After the solvent has evaporated, each test tube is filled with 20-50 cattle tick larvae (Rhipicephalus microplus), closed with a perforated lid and incubated in a horizontal position at 85% relative humidity and 27° C. in an incubator. After 48 hours efficacy is determined. The larvae are patted on the ground of the tubes and negative geotactic behaviour is recorded.
An efficacy of 100% means all larvae are dead or moribund; 0% means no larvae are dead or moribund.

[5] = system: fall armyworm larvae (Spodoptera frugiperda); test: Spodoptera frugiperda spray test (maize leaf sections); settings: 168 h
Description: Solvent: 78.0 parts by weight acetone • 1.5 parts by weight dimethylformamide
as §3
as §4, with “solvents” for “solvent,”, “and” for “and the concentrate”
Maize (Zea mays) leaf sections are sprayed with a preparation of the active ingredient of the desired concentration. Once dry, the leaf sections are infested with fall armyworm larvae (Spodoptera frugiperda).
After 7 days mortality in % is determined. 100% means all caterpillars have been killed and 0% means none of the caterpillars have been killed.

[6] = system: larvae of the southern green stink bug (Nezara viridula); test: Nezara viridula spray test; settings: in Hordeum vulgare, 96 h
Description: as §2, §3, §4
Barley plants (Hordeum vulgare) infested with larvae of the southern green stink bug (Nezara viridula) are sprayed with a test solution containing the desired concentration of the active ingredient.
After 4 days mortality in % is determined. 100% means all the stink bugs have been killed; 0% means none of the stink bugs have been killed.

[7] = system: adult brown dog ticks (Rhipicephalus sanguineus); test: Rhipicephalus sanguineus in-vitro contact test with adult brown dog ticks; settings: 5 μg/cm^2 (=500 g/ha), after 48 hours, read-out: efficacy (ticks dead or moribund)
Description: as §5
After the solvent has evaporated, each test tube is filled with 5-10 adult brown dog ticks (Rhipicephalus sanguineus), closed with a perforated lid and incubated in a lying position at room temperature and relative humidity. After 48 hours efficacy is determined. The ticks are patted on the ground of the tubes and are incubated on a heating plate at 45-50° C. for at most 5 minutes. Immotile or uncoordinated moving ticks, which are not able to escape the heat by climbing upwards, are marked as dead or moribund.
An efficacy of 100% means all ticks are dead or moribund; 0% means no ticks are dead or moribund.

| SMILES | mortality at 100 ppm [1] [%] | pest or weed control at 0.004 mg [2] [%] | pest or weed control at 5 µg/cm2 [4] [%] | pest or weed control at 0.02 mg [2] [%] | other results |
| --- | --- | --- | --- | --- | --- |
| CC(NC(=O)c1cc(C(F)(F)F)cc(C(F)(F)F)c1)c1nc(Cc2ccccc2)nn1-c1ncccn1 (racemic) [I-082, N-[1-(5-benzyl-2-pyrimidin-2-yl-1,2,4-triazol-3-yl)ethyl]-3,5-bis(trifluoromethyl)benzamide] | 100 | 100 |  |  | pest or weed control at 32 µg/disc, 100 g/ha [3]: 80% |
| CC(NC(=O)c1cc(Cl)cc(S(C)(=O)=O)c1)c1nc(N)nn1-c1ncccn1 (stereo not shown) [I-008] | 100 | 100 |  |  |  |
| CC(NC(=O)c1cc(Cl)cc(C(F)(F)F)c1)c1nc(NC(=O)C2(Cl)CC2)nn1-c1ccc(Cl)cn1 (stereo not shown) [I-014] | 100 | 100 | 100 | 100 | mortality at 100 g/ha [5]: 100%; mortality at 500 g/ha [5]: 100% |
| CC(NC(=O)c1cc(Cl)cc(S(C)(=O)=O)c1)c1nc(NC(=O)C2CC2(F)F)nn1-c1ncccn1 (stereo not shown) [I-021] | 100 | 80 |  |  | mortality at 100 g/ha [6]: 90% |
| CC(NC(=O)c1cc(Cl)cc(Cl)c1)c1nc(CS(C)(=O)=O)nn1-c1ccc(Cl)cn1 (stereo not shown) [I-028] | 100 | 100 |  | 100 |  |
| CC(NC(=O)c1cncc(C(F)(F)F)c1)c1nc(CS(C)(=O)=O)nn1-c1ccc(Cl)cn1 (stereo not shown) [I-030] | 100 | 100 |  | 100 |  |
| CC(NC(=O)c1cc(Cl)cc(C(F)(F)F)c1)c1nc(-c2ccc(Cl)nc2)nn1-c1ccc(Cl)cn1 (stereo not shown) [I-032] |  |  |  |  | pest or weed control at 5 µg/cm2, 500 g/ha [7]: 80% |
| CC(NC(=O)c1cc(Cl)nc(Cl)c1)c1nc(-c2cnccn2)nn1-c1ccc(Cl)cn1 (stereo not shown) [I-035] | 100 |  | 100 | 100 |  |
| CC(NC(=O)c1cc(Br)cc(C(F)(F)F)c1)c1nc(-c2cnccn2)nn1-c1ccc(Cl)cn1 (stereo not shown) [I-036] | 100 |  | 100 | 100 | mortality at 100 g/ha [5]: 100%; mortality at 500 g/ha [5]: 100% |
| CC(NC(=O)c1cc(Cl)nc(C(F)(F)F)c1)c1nc(-c2cnccn2)nn1-c1ccc(Cl)cn1 (stereo not shown) [I-037] | 90 | 100 |  | 100 |  |
| CC(NC(=O)c1cncc(C(F)(F)F)c1)c1nc(-c2cnccn2)nn1-c1ccc(Cl)cn1 (stereo not shown) [I-038] | 100 | 100 |  | 100 |  |
| CC(NC(=O)c1cc(Cl)cc(S(C)(=O)=O)c1)c1nc(-c2cnccn2)nn1-c1ccc(Cl)cn1 (stereo not shown) [I-039] | 100 | 100 |  | 80 |  |
| CC(NC(=O)c1cc(Cl)cc(C(F)(F)F)c1)c1nc(-c2cnccn2)nn1-c1ccc(Cl)cn1 (stereo not shown) [I-040] | 100 | 100 | 100 | 100 |  |
| CC(NC(=O)c1cncc(C(F)(F)F)c1)c1nc(-c2ccc(Cl)nc2)nn1-c1ncccn1 (stereo not shown) [I-042] | 90 |  |  | 100 |  |
| CC(NC(=O)c1cc(Cl)nc(C(F)(F)F)c1)c1nc(-c2cnccn2)nn1-c1ncccn1 (stereo not shown) [I-044] | 100 | 100 |  | 100 |  |
| CC(NC(=O)c1cc(Cl)cc(Cl)c1)c1nc(-c2cnccn2)nn1-c1ncccn1 (stereo not shown) [I-046] | 100 | 100 |  | 100 | mortality at 500 g/ha [5]: 100% |
| CC(NC(=O)c1cc(Cl)cc(C(F)(F)F)c1)c1nc(-c2cnccn2)nn1-c1ncccn1 (stereo not shown) [I-047] | 100 | 100 |  | 100 | mortality at 500 g/ha [5]: 83% |
| CC(NC(=O)c1cc(Br)cc(C(F)(F)F)c1)c1nc(-c2cnccn2)nn1-c1ncccn1 (stereo not shown) [I-048] | 100 | 100 |  |  | mortality at 500 g/ha [5]: 83% |
| CC(NC(=O)c1cc(Cl)nc(Cl)c1)c1nc(-c2cnccn2)nn1-c1ncccn1 (stereo not shown) [I-049] | 100 | 80 |  | 100 |  |
| CC(NC(=O)c1cncc(C(F)(F)F)c1)c1nc(-c2cnccn2)nn1-c1ncccn1 (stereo not shown) [I-050] | 100 | 100 |  | 100 |  |
| CC(NC(=O)c1cc(Cl)nc(C(F)(F)F)c1)c1nc(-c2ncccn2)nn1-c1ncccn1 (stereo not shown) [I-056] | 100 | 80 |  | 100 |  |
| CC(NC(=O)c1cc(Cl)cc(S(C)(=O)=O)c1)c1nc(SC(F)(C(F)(F)F)C(F)(F)F)nn1-c1ccc(Cl)cn1 (stereo not shown) [I-069] |  | 100 | 100 | 100 |  |
| CC(NC(=O)c1cc(Cl)cc(C(F)(F)F)c1)c1nc(SC(F)(C(F)(F)F)C(F)(F)F)nn1-c1ccc(Cl)cn1 (stereo not shown) [I-070] |  | 100 | 100 | 100 |  |
| CC(NC(=O)c1cc(Cl)cc(C(F)(F)F)c1)c1nc(C#N)nn1-c1ccc(C#N)cn1 (stereo not shown) [I-081] | 90 | 100 | 100 |  | pest or weed control at 32 µg/disc, 100 g/ha [3]: 100% |
| CC(NC(=O)c1cc(Cl)cc(C(F)(F)F)c1)c1nc(Cc2ccccc2)nn1-c1ncccn1 (stereo not shown) [I-083] | 90 |  |  |  | pest or weed control at 32 µg/disc, 100 g/ha [3]: 100% |
| CC(NC(=O)c1cc(C(F)(F)F)cc(C(F)(F)F)c1)c1nc(NC(=O)OC(C)(C)C)nn1-c1ccc(C(=O)N2CCOCC2)cn1 (stereo not shown) [I-113] |  |  | 90 |  | pest or weed control at 32 µg/disc, 100 g/ha [3]: 100% |
| CC(NC(=O)c1cc(OC(F)(F)F)cc(C2CC2)c1)c1nc(N)nn1-c1ccc(C#N)cn1 (stereo not shown) [I-122] |  |  | 100 |  | pest or weed control at 32 µg/disc, 100 g/ha [3]: 100% |
| CC(=O)Nc1nc(C(C)NC(=O)c2cc(OC(F)(F)F)cc(C3CC3)c2)n(-c2ccc(C#N)cn2)n1 (stereo not shown) [I-124] |  |  | 100 |  | mortality at 100 g/ha [5]: 100%; pest or weed control at 32 µg/disc, 100 g/ha [3]: 100% |
| CC(NC(=O)c1cc(C(F)(F)F)cc(C(F)(F)F)c1)c1nc(N2CCOCC2)nn1-c1ccc(C#N)cn1 (stereo not shown) [I-158] |  |  | 100 |  | mortality at 100 g/ha [5]: 100%; pest or weed control at 32 µg/disc, 100 g/ha [3]: 100% |
| CC(NC(=O)c1cc(OC(F)(F)F)cc(C2CC2)c1)c1nc(N2CCOCC2)nn1-c1ccc(C#N)cn1 (stereo not shown) [I-161] |  |  | 100 |  | pest or weed control at 32 µg/disc, 100 g/ha [3]: 100% |
